Results as given in ChEMBL document CHEMBL1153626, “Rapid assessment of a novel series of selective CB(2) agonists using parallel synthesis protocols: A Lipophilic Efficiency (LipE) analysis” (Bioorg Med Chem Lett, 2009).

Key:
Format in all cases: functional, cell-based
[1] = biological target: Cannabinoid receptor 2 (Homo sapiens, UniProt P34972); assay: Agonist activity at human recombinant CB2 receptor expressed in CHO cells assessed as inhibition forskolin-induced cAMP release
[2] = biological target: T1, Cannabinoid receptor 1 (Homo sapiens, UniProt P21554); assay: Agonist activity at human recombinant CB1 receptor expressed in CHO cells at 10 uM by FLIPR assay
[3] = biological target: T1, Cannabinoid receptor 1; assay: Agonist activity at human recombinant CB1 receptor expressed in CHO cells by FLIPR assay

Cannabinoid receptor 2, sequence (P34972 whole entry): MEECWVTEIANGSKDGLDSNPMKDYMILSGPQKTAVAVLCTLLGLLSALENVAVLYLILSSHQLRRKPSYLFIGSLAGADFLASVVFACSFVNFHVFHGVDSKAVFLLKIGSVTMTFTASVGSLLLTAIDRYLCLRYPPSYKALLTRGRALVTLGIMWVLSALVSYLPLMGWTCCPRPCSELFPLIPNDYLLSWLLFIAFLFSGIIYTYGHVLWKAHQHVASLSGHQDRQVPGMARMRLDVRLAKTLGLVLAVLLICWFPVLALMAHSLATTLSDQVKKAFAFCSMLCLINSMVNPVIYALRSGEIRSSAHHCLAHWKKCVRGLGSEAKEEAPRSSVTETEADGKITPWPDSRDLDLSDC
T1 sequence (P21554 whole entry): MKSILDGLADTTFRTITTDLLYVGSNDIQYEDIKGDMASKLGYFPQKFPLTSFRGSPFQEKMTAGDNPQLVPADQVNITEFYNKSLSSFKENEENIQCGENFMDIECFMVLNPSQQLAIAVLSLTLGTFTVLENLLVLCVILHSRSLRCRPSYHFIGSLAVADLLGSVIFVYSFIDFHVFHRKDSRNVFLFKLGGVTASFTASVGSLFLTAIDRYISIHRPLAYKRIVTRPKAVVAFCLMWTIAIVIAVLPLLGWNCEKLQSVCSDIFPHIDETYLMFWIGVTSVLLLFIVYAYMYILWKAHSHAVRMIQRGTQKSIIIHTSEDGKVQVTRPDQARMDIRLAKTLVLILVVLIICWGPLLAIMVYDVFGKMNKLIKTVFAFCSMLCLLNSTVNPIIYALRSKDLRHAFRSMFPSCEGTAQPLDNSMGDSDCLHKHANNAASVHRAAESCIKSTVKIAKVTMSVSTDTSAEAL

## CC(C)(C)c1nc2c(n1CC1CC1)CCN(S(=O)(=O)Cc1ccccc1)C2
[1]
  EC50: 21.8 nM
[2]
  Activity: 13%

## CC(C)(C)Cc1nc2c(n1CC1CC1)CCN(S(=O)(=O)c1ccccc1)C2
[1]
  EC50: 9.1 nM
[2]
  Activity: 9%

## COCCS(=O)(=O)N1CCc2c(nc(CC(C)(C)C)n2CC2CC2)C1
[1]
  EC50: 21.5 nM
[3]
  EC50: 14000 nM
[2]
  Activity: 37%

## Cc1nocc1S(=O)(=O)N1CCc2c(nc(CC(C)(C)C)n2CC2CC2)C1
[1]
  EC50: 18.5 nM
[2]
  Activity: 9%

## COc1ncc(Br)cc1CN1CCc2c(nc(C(C)(C)C)n2CC2CC2)C1
[1]
  EC50: 295 nM

## CC(C)(C)c1nc2c(n1CC1CC1)CCN(S(=O)(=O)c1cccnc1)C2
[1]
  EC50: 14.2 nM
[2]
  Activity: 11%

## CCCCCN1CCc2c(nc(C(C)(C)C)n2CC2CC2)C1
[1]
  EC50: 878 nM

## CC(C)(C)Cc1nc2c(n1CC1CC1)CCN(S(C)(=O)=O)C2
[1]
  EC50: 439 nM
[2]
  Activity: 9%

## CC(C)(C)c1nc2c(n1CC1CC1)CCN(S(=O)(=O)c1ccccc1)C2
[1]
  EC50: 7.9 nM
[2]
  Activity: 10%

## Cc1noc(C)c1S(=O)(=O)N1CCc2c(nc(CC(C)(C)C)n2CC2CC2)C1
[1]
  EC50: 7 nM
[2]
  Activity: 24%

## CCCCCCC(C)(C)c1ccc([C@@H]2C[C@H](O)CC[C@H]2CCCO)c(O)c1
[2]
  Activity: 100%

## Cc1noc(C)c1S(=O)(=O)N1CCc2c(nc(C(C)(C)C)n2CC2CC2)C1
[1]
  EC50: 5.1 nM
[3]
  EC50: 7500 nM
[2]
  Activity: 66%

## CN(Cc1ccccc1)C(=O)N1CCc2c(nc(CC(C)(C)C)n2CC2CC2)C1
[1]
  EC50: 523 nM

## CCCCC(=O)N1CCc2c(nc(CC(C)(C)C)n2CC2CC2)C1
[1]
  EC50: 1020 nM

## CC(C)(C)C(=O)N1CCc2c(nc(C(C)(C)C)n2CC2CC2)C1
[1]
  EC50: 320 nM

## CCCOC(=O)N1CCc2c(nc(CC(C)(C)C)n2CC2CC2)C1
[1]
  EC50: 560 nM

## COCCS(=O)(=O)N1CCc2c(nc(C(C)(C)C)n2CC2CC2)C1
[1]
  EC50: 26.7 nM
[2]
  Activity: 25%

## CN(Cc1ccccc1)C(=O)N1CCc2c(nc(C(C)(C)C)n2CC2CC2)C1
[1]
  EC50: 637 nM

## CC(C)(C)c1nc2c(n1CC1CC1)CCN(S(C)(=O)=O)C2
[1]
  EC50: 403 nM
[2]
  Activity: 10%

## CCCCCN1CCc2c(nc(CC(C)(C)C)n2CC2CC2)C1
[1]
  EC50: 3000 nM

## CC(C)(C)Cc1nc2c(n1CC1CC1)CCN(S(=O)(=O)Cc1ccccc1)C2
[1]
  EC50: 13.4 nM
[2]
  Activity: 15%

## CCCN(C)C(=O)N1CCc2c(nc(C(C)(C)C)n2CC2CC2)C1
[1]
  EC50: 380 nM

## Cc1nocc1S(=O)(=O)N1CCc2c(nc(C(C)(C)C)n2CC2CC2)C1
[1]
  EC50: 55.4 nM
[3]
  EC50: 18000 nM
[2]
  Activity: 38%

## CC(C)(C)Cc1nc2c(n1CC1CC1)CCN(S(=O)(=O)c1cccnc1)C2
[1]
  EC50: 24.5 nM
[2]
  Activity: 4%
